This note sets out measurements from paper PMC6022709 (BMC Research Notes, 2018).

Values after ≈ are worked out from the molar mass of the structure shown. Numbered stars: 1 amine (or outer) side, 2 acyl side, 3 side chain; on linkers, the order of the positions; unused ones are H or OH. Square brackets hold non-standard residues; d marks the D form. Peptide text beside a SMILES is read from it. ξ: configuration not given here. X1 = CC[C@H](C)[C@@H](C(=O)[*:2])N(O)[*:1]; ξPiz(1,6-dehydro) = O=C(O)C1CCC=NN1; ξN(OH)Ile(3ξ) = CCC(C)C(NO)C(=O)O; dNMeF = CN[C@H](Cc1ccccc1)C(=O)O; NMeF = CN[CH](Cc1ccccc1)C(=O)O; X2 = O=C(C1CCCNN1[*:1])[*:2]; Pip = O=C(O)[C@@H]1CCCCN1; dPip = O=C(O)[C@H]1CCCCN1

A word on the MIC99: it is the lowest concentration that inhibits either 99% of growth or 99% of the strains tested, depending on the study. In general, MIC90 refers to the lowest concentration that inhibits either 90% of growth or 90% of the strains tested, depending on the study. A high value points to lower susceptibility.

The test system of one assay is M. tuberculosis WT. It counts as cell-based, Mycobacterium tuberculosis.
The subject of assay [1] is M. tuberculosis H37Rv-LP (ATCC 25618) expressing a red fluorescent protein. The conditions noted are these: for MIC90: H37Rv.
Assay [2] has the same test system. Kind of assay: microbe, parasite or virus in culture. The conditions noted are these: Mycobacterium tuberculosis.

Molecule `CC(C)CC1C(=O)N2NCCCC2C(=O)N2NCCCC2C(=O)N(C)C(Cc2ccccc2)C(=O)N2CCCC2C(=O)NC(Cc2ccccc2)C(=O)N1O` (stereo not drawn) [Compound 1, cyclo[N-(Me)Phe-Pro-Phe-N-(OH)Leu-Piz-Piz]] registered an MIC99 with M. tuberculosis WT of 1.6 µM (≈ 1.21 µg/mL). Further, the MIC90 in assay [1] stood at 2.3 ± 0.5 µM (≈ 1.75 µg/mL).

Consider `CCC(C)C1C(=O)N2NCCCC2C(=O)N2NCCCC2C(=O)N(C)C(Cc2ccccc2)C(=O)N2CCCC2C(=O)NC(Cc2ccccc2)C(=O)N1O` (stereo not drawn) [Compound 2] (cyclo([ξN(OH)Ile(3ξ)][X2][X2][NMeF]PF); configuration not given here), for which the MIC90 in assay [1] worked out at 2.8 ± 0.8 µM (≈ 2.12 µg/mL).

As to `CC(C)CC1C(=O)N2NCCCC2C(=O)N2NCCCC2C(=O)N(C)C(Cc2ccccc2)C(=O)N2CCCC2C(=O)NC(C(C)C)C(=O)N1O` (stereo not drawn) [Compound 3], the MIC99 against M. tuberculosis WT turned out to be 0.8 µM (≈ 0.569 µg/mL). Besides, in assay [1], the MIC90 stood at 8.9 ± 1.8 µM (≈ 6.33 µg/mL).

On to `CCC(C)C1C(=O)N2CCCC2C(=O)NC(CC(C)C)C(=O)N(O)C(CC(C)C)C(=O)N2NCCCC2C(=O)N2NCCCC2C(=O)N1C` (stereo not drawn) [Compound 4], for which the MIC90 in assay [1] turned out to be 7.3 ± 1.9 µM (≈ 5.04 µg/mL).

`CC[C@H](C)[C@H]1C(=O)N2NCCC[C@@H]2C(=O)N2NCCC[C@H]2C(=O)N(C)[C@H](Cc2ccccc2)C(=O)N2CCC[C@H]2C(=O)N[C@H](Cc2ccccc2)C(=O)N1CC(C)=O` [Compound 5] showed an MIC90 in assay [1] of 8.2 ± 1.2 µM (≈ 6.55 µg/mL). This counts as single-digit micromolar.

For the molecule `CCC(C)C1NC(=O)C(Cc2ccccc2)NC(=O)C2CCCN2C(=O)C(Cc2ccccc2)N(C)C(=O)C2CCC=NN2C(=O)C2CCC=NN2C1=O` (stereo not drawn) [Compound 7] (cyclo([ξPiz(1,6-dehydro)][ξPiz(1,6-dehydro)][NMeF]PFI); configuration not given here), the MIC90 in assay [1] was above 20 µM.

Consider `CC[C@H](C)[C@H]1C(=O)N2CCCC[C@@H]2C(=O)N2CCCC[C@H]2C(=O)N(C)[C@H](Cc2ccccc2)C(=O)N2CCC[C@H]2C(=O)N[C@H](Cc2ccccc2)C(=O)N1O` [Compound 15] (cyclo([dNMeF]P[dF][X1][dPip][Pip])), for which, in assay [1], the “anti-tubercular activity (in words)” value is “loss of anti-tubercular activity” and the MIC90 is on record as above 20 µM.

As for `CCCC1C(=O)N2CCCC2C(=O)NC(CC(C)C)C(=O)N(O)C(CC(C)C)C(=O)N2NCCCC2C(=O)N2NCCCC2C(=O)N1C` (stereo not drawn) [Compound 16], the MIC90 in assay [1] is listed as above 20 µM.

`CO[C@H]1/C=C/O[C@@]2(C)Oc3c(C)c(O)c4c(O)c(c(/C=N/N5CCN(C)CC5)c(O)c4c3C2=O)NC(=O)/C(C)=C\C=C\[C@H](C)[C@H](O)[C@@H](C)[C@@H](O)[C@@H](C)[C@H](OC(C)=O)[C@@H]1C` [Rifampicin]: the MIC in assay [2] was 0.0077 µM (≈ 0.00634 µg/mL).
